Tests used:
[1] = Stability in human serum measured up to 24 hrs; format: ADME, cell-free
[2] = Stability in mouse serum measured up to 24 hrs; format: ADME, cell-free
[3] = Stability in rat serum measured up to 24 hrs; format: ADME, cell-free
NCI-H226 = assay: Antiproliferative activity against human NCI-H226 cells after 72 hrs by MTS assay; format: functional, cell-based; settings: NCI-H226, 72 h
NCI-N87 = assay: Antiproliferative activity against human NCI-N87 cells after 72 hrs by MTS assay; format: functional, cell-based; settings: NCI-N87, 72 h
OVCAR-3 = assay: Antiproliferative activity against human OVCAR3 cells after 72 hrs by MTS assay; format: functional, cell-based; settings: OVCAR-3, 72 h
HCT-116/VM46 = assay: Antiproliferative activity against human HCT116/VM46 cells after 72 hrs by MTS assay; format: functional, cell-based; settings: HCT-116/VM46, 72 h
HCT-116 = assay: Antiproliferative activity against human HCT116 cells after 72 hrs by MTS assay; format: functional, cell-based; settings: HCT-116, 72 h
[4] = Aqueous solubility of the compound at pH 5.5; format: physicochemical; settings: aqueous medium

Structure (SMILES)	Stability [1]	Stability [2]	Stability [3]	IC50 (NCI-H226)	IC50 (NCI-N87)	IC50 (OVCAR-3)	IC50 (HCT-116/VM46)	IC50 (HCT-116)	solubility [4]
O=C(CCN1C(=O)C=CC1=O)NCCOCCOCCOCCOCCOCCOCCOCCOCCC(=O)ON1C(=O)CCC1=O	Unstable	Unstable	Unstable						
COc1cc2c(cc1OCCCOc1cc3c(cc1OC)C(=O)N1CCC[C@H]1C=N3)N=C[C@@H]1CCCN1C2=O [DSB-120]				70 nM	63 nM	56 nM			
O=C1c2cc3c(cc2N=C[C@@H]2CCCN12)OCCCOc1cc2c(cc1OCCCCCCCCO3)C(=O)N1CCC[C@H]1C=N2				1.6 nM	2.7 nM	1.2 nM			
CC1=CN2C(=O)c3cc4c(cc3N=C[C@@H]2C1)OCCCOc1cc2c(cc1OCCCCCCCCO4)C(=O)N1C=C(c3ccc(N)cc3)C[C@H]1C=N2				0.655 nM	1.36 nM	1.24 nM	1.22 nM	0.135 nM	
O=C1c2cc3c(cc2N=C[C@@H]2CCCN12)OCCCOc1cc2c(cc1OCCCCCCCCCCCO3)C(=O)N1CCC[C@H]1C=N2				69 nM	146 nM	78 nM			
COc1cc2c(cc1OCCCOc1cc3c(cc1OC)C(=O)N1C=C(c4ccccc4)C[C@H]1C=N3)N=C[C@@H]1CC(c3ccccc3)=CN1C2=O				0.117 nM	0.152 nM	0.126 nM			
O=C1c2cc3c(cc2N=C[C@@H]2CCCN12)OCCCOc1cc2c(cc1OCCCCCCCCCCCCO3)C(=O)N1CCC[C@H]1C=N2				109 nM	306 nM	136 nM			
CN1CCN(c2ccc(C3=CN4C(=O)c5cc6c(cc5N=C[C@@H]4C3)OCCCOc3cc4c(cc3OCCCCCCCCO6)C(=O)N3C=C(c5ccc(N6CCN(C)CC6)cc5)C[C@H]3C=N4)cc2)CC1				0.047 nM	0.034 nM	0.35 nM	0.076 nM	0.006 nM	> 698 µg/mL
COc1ccc(C2=CN3C(=O)c4cc5c(cc4N=C[C@@H]3C2)OCCCOc2cc3c(cc2OCCCCCCCCO5)C(=O)N2C=C(c4ccc(OC)cc4)C[C@H]2C=N3)cc1				0.993 nM	0.621 nM	1.82 nM	1.05 nM	0.167 nM	< 1 µg/mL
O=C1c2cc3c(cc2N=C[C@@H]2CCCN12)OCCCOc1cc2c(cc1OCCCCCCCCCCO3)C(=O)N1CCC[C@H]1C=N2				12 nM	22 nM	20 nM			
CN1CCN(c2ccc(C3=CN4C(=O)c5cc6c(cc5N=C[C@@H]4C3)OCCCOc3cc4c(cc3OCCCCCCCCO6)C(=O)N3C=C(c5ccc(N)cc5)C[C@H]3C=N4)cc2)CC1				0.024 nM	0.486 nM	0.385 nM	0.015 nM	0.016 nM	
O=C1c2cc3c(cc2N=C[C@@H]2CCCN12)OCCCOc1cc2c(cc1OCCCCCCCO3)C(=O)N1CCC[C@H]1C=N2				8.1 nM	4.6 nM	3.4 nM			
O=C1c2cc3c(cc2N=C[C@@H]2CCCN12)OCCCOc1cc2c(cc1OCCCCCCCCCO3)C(=O)N1CCC[C@H]1C=N2				8.7 nM	8.3 nM	7.3 nM			
COc1ccc(C2=CN3C(=O)c4cc5c(cc4N=C[C@@H]3C2)OCCCOc2cc3c(cc2OCCCCCCCCO5)C(=O)N2C=C(c4ccc(N)cc4)C[C@H]2C=N3)cc1				0.355 nM	0.559 nM	0.311 nM	0.36 nM	0.063 nM	
O=C1c2cc3c(cc2N=C[C@@H]2CC(c4ccccc4)=CN12)OCCCOc1cc2c(cc1OCCOCCOCCO3)C(=O)N1C=C(c3ccccc3)C[C@H]1C=N2				1.07 nM	1.54 nM	1.7 nM	6.44 nM	0.129 nM	< 1 µg/mL
